The nature of data set [1]: Solubility of escitalopram base in organic solvents. Format: physicochemical.
Data set [2] can be described thus: Aqueous solubility of escitalopram base. To be noted: crystalline and/or oil forms. The class given is physicochemical.

Molecules are shown by their SMILES.

In the case of `CN(C)CCC[C@@]1(c2ccc(F)cc2)OCc2cc(C#N)ccc21` [escitalopram base, S-1-[3-(dimethylamino)propyl]-1-(4-fluorophenyl)-1,3-dihydro-5-isobenzofurancarbonitrile], in data set [1] (crystalline or oil, organic solvents such as N-Methyl-2-pyrrolidone (NMP) and Dimethyl sulfoxide (DMSO)), the “solubility in organic solvents” value is on record as “extremely high solubility”. For the same compound, in data set [1] (oil forms of escitalopram base, organic solvents), the “escitalopram content of solutions that can be prepared in organic solvents” value is “more than 70 % wt”. For the same compound, the aqueous solubility entry in data set [2] is recorded as “low aqueous solubility”.

The values are drawn from US20240100012A1, “PHARMACEUTICAL DOSAGE FORM” (priority 2021, published 2024).
